The text below walks through data of patent US5164298A (priority 1988, dated 1992).

Entries after “also recorded” stand apart in the source; their conditions may differ. Read-outs that look alike come from different tables or passages of the source.

For series [1], the target named is T1, VT2 (Escherichia coli, UniProt Q07871). In kind it is binding, E. coli.
For a further series, the target named is verocytotoxin 1 (Bacteriophage H30, UniProt P69178).
In series [2] the target is T2, Shiga toxin (Shigella dysenteriae, UniProt Q7BQ98). The following applies: cited from earlier work.
Series [3] deals with T2, Shiga toxin. The following applies: cited from earlier work. This is another data set of the same source.
A further series has as its target VT1 toxin (Bacteriophage H30, UniProt P69178).
Series [4] addresses T1, VT2. Type of series: cell-based, E. coli.
Setting [5] is: natural verocytotoxin, glycolipid dotted at 0.01-50 nmol.
The mark [6] stands for this setting: purified natural VT1, tlc or dot blot, antiverocytotoxin and immunoperoxidase conjugate.

Sequence of verocytotoxin 1 (P69178 whole entry, looked up): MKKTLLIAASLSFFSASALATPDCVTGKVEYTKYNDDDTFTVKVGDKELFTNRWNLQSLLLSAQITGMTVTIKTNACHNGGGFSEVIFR
T2 sequence (Q7BQ98 whole entry, looked up): as the sequence (P69178 whole entry, looked up) above
Sequence of VT1 toxin (P69178 whole entry, looked up): as above

Take `CCCCCCCCCCCCCC=CC(O)C(CO[C@@H]1O[C@H](CO)[C@@H](O[C@@H]2O[C@H](CO)[C@H](O)[C@H](O)[C@H]2O)[C@H](O)[C@H]1O)NC(=O)CCCCCCCCCCCCCCC` (stereo partly drawn) [LacCer, lactosyl ceramide]: the “VT2 binding to glycolipid” value at VT2 [1] is on record as “no binding”. For the same molecule, the “verocytotoxin binding above background (125I-Protein A binding curves)” value (“verocytotoxin binding above background” for short) at verocytotoxin 1 (setting [5]) is listed as “No binding above background”. Further, the “verocytotoxin binding to glycolipid” value at verocytotoxin 1 (setting [6]) is “No binding”.

For the molecule `N[C@H]1[C@H](O[C@H]2[C@H](O)[C@@H](N)[C@H](O[C@H]3[C@H](O)[C@@H](N)C(O)O[C@@H]3CO)O[C@@H]2CO)O[C@H](CO)[C@@H](O)[C@@H]1O` (stereo partly drawn) [chiotriose], the “effect on Shiga toxin Gb0se3 cer binding” value on Shiga toxin [2] is “little effect”. Besides, the “protection against Shiga toxin cytotoxicity” value at Shiga toxin [3] is “protects against cytotoxicity”.

As for `CCCCCCCCCCCCC/C=C/[C@@H](O)[C@@H](N)CO[C@@H]1O[C@H](CO)[C@@H](O[C@@H]2O[C@H](CO)[C@H](O[C@H]3O[C@H](CO)[C@H](O)[C@H](O)[C@H]3O)[C@H](O)[C@H]2O)[C@H](O)[C@H]1O` [deacylated globotriosyl ceramide], at VT1 toxin, the “amount of purified toxin the assay can detect” value is “less than 5 pg” and the “effect of deacylation on verocytotoxin binding” value is listed as “does not inhibit verocytotoxin binding”.

For the molecule `CCCCCCCCCCCCCC=CC(O)C(COC1OC(CO)C(OC2OC(CO)C(OC3OC(CO)C(O)C(OC4OC(CO)C(O)C(O)C4NC(C)=O)C3O)C(O)C2O)C(O)C1O)NC(=O)CCCCCCCCCCCCCCC` (stereo not drawn) [GbOse4 cer, globotetraosyl ceramide], the “VT2 binding to glycolipid” value on VT2 [1] is on record as “no binding; also recorded: does not bind”. On VT2 [4], the “VT2 binding by liposomal adsorption” value is reported as “at least minimal”. Also, the “verocytotoxin binding above background” value on verocytotoxin 1 (setting [5]) is reported as “No binding above background”. At verocytotoxin 1 (setting [6]), the “verocytotoxin binding to glycolipid” value is listed as “No binding”. For the same molecule, the “Shiga toxin binding to glycolipid” value on Shiga toxin [2] is “residual binding”.

Consider `CCCCCCCCCCCCCC=CC(O)C(CO[C@@H]1O[C@H](CO)[C@H](O[C@H]2O[C@H](CO)[C@H](O)[C@H](O)[C@H]2O)[C@H](O)[C@H]1O)NC(=O)CCCCCCCCCCCCCCC` (stereo partly drawn) [galabiosyl ceramide], for which, on VT2 [1], the “VT2 binding after digestion with αgalactosidase” value is on record as “binding is removed” and the “VT2 binding to glycolipid” value is “binds”. Besides, the “VT1 binding to Daudi cell glycolipids” value at verocytotoxin 1 (glycolipids contained in Daudi cells) is “VT1-binding”.

Turning to digalactosyl diglyceride [DGDG], the “VT2 binding to glycolipid” value on VT2 [1] is recorded as “loss of VT2 binding; also recorded: do not bind”. Besides, on verocytotoxin 1, the “verocytotoxin binding above background” value is “No binding above background” and the “verocytotoxin binding to glycolipid” value was “unreactive with the toxin”.
